# Test system: IRE1-XBP1s (HEK293 T-REx cells stably expressing the XBP1-RLuc splicing reporter)
# Test: IRE1-XBP1s activation Assay (XBP1-RLuc splicing reporter, luminescence relative to thapsigargin, with or without IRE1 inhibitor 4μ8C)
# Type: cell-based
# Conditions: 18 h, compound 10 μM, luminescence as percentage signal relative to thapsigargin (Tg) (500 nM, 18 h)
# Experimental: IRE1-XBP1s activation Assay: HEK293 T-REx cells stably expressing the XBP1-RLuc splicing reporter were treated with an IRE1-XBP1s activator provided herein (10 μM) in the presence or absence of the IRE1 active site inhibitor 4μ8C (32 μM) for 18 h. Luminescence was shown as the percentage signal relative to thapsigargin (Tg) (500 nM, 18 h).
row,SMILES,activation at 10 µM
1,[2H]C([2H])([2H])c1ccc(OCCN(C)C(=O)Cn2cc(NC(=O)C3CNc4ccccc4O3)cn2)cc1 (centres unmarked) [Compound 201],≥ 50%
2,Cc1ccc(OCCN(C)C(=O)Cn2cc(NC(=O)[C@H]3CCc4ccccc4O3)cn2)cc1 [Compound 202],30 to 50%
3,Cc1ccc(OCCN(C)C(=O)Cn2cc(NC(=O)C3CNCC3Nc3ccnc(F)n3)cn2)cc1 (centres unmarked) [Compound 203],< 30%
4,Cc1ccc(OCCN(C)C(=O)Cn2cc(N(C)C(=O)C3=C(c4ccccc4)CCCC3)cn2)cc1 [Compound 205],< 30%
5,Cc1ccc(OCCN(C)C(=O)Cn2cc(NC(=O)OC3CCCNC3)cn2)cc1 (centres unmarked) [Compound 206],< 30%

# — patent publication US20260193244A1 (Protego Biopharma, Inc., priority 2022, published 2026)
